Data: patent publication US4948782A, “A method of promoting the growth of domestic animals with erythromycin derivative containing composition” (Kitasato Kenkyusho, priority 1987, dated 1990)

Legend:
Type in all cases: cell-based
[1] = tested on: Staphylococcus aureus ATCC 6538P; assay: MIC, Staphylococcus aureus ATCC 6538P (SA(1)); settings: Staphylococcus aureus, ATCC6538P, Staphylococcus aureus ATCC 6538P; read-out: MIC SA (1)
Source text: (§1) The minimum inhibitory concentrations (MIC: mcg/ml) of the erythromycin derivatives of the present invention and the control erythromycin derivative (*) as the known growth promoting agent on typical test bacteria are shown in the following Tables 1 to 5.
SA(1): Staphylococcus aureus ATCC 6538P

[2] = tested on: Staphylococcus aureus FDA 209P; assay: MIC, Staphylococcus aureus FDA 209P (SA(2)); settings: Staphylococcus aureus, FDA209P, Staphylococcus aureus FDA 209P; read-out: MIC SA (2)
Source text: as §1
SA(2): Staphylococcus aureus FDA 209P

[3] = tested on: Bacillus subtilis; assay: MIC, Bacillus subtilis (BS); settings: read-out: MIC BS
[4] = tested on: Bacillus cereus IFO 3001; assay: MIC, Bacillus cereus IFO 3001 (BC); settings: Bacillus cereus, IFO3001, Bacillus cereus IFO 3001; read-out: MIC BC
[5] = tested on: Escherichia coli NIHJ; assay: MIC, Escherichia coli NIHJ (EC)
[6] = tested on: Klebsiella pneumoniae ATCC 10031; assay: MIC, Klebsiella pneumoniae ATCC 10031 (KP); settings: ATCC10031; Klebsiella pneumoniae ATCC 10031; read-out: MIC KP

Measured: MIC

CCC1OC(=O)C(C)C(OC2CC(C)(OC)C(O)C(C)O2)C(C)C(OC2OC(C)CC(N(C)CC)C2O)C2(C)CC(C)=C(O2)C(C)C(OC(C)=O)C1(C)OC(C)=O (stereo not drawn) [Compound 53]
> 100 µg/mL: all assays above

CCC1OC(=O)C(C)C(OC2CC(C)(OC)C(O)C(C)O2)C(C)C(OC2OC(C)CC(N(C)CC)C2O)C2(C)CC(C)=C(O2)C(C)C2OC(=O)OC12C (stereo not drawn) [Compound 54]
> 100 µg/mL: all assays above

C#CC[N+](C)(C)C1CC(C)OC(OC2C(C)C(OC3CC(C)(OC)C(O)C(C)O3)C(C)C(=O)OC(CC)C3(C)OC(C)(C)OC3C(C)C3=C(C)CC2(C)O3)C1O (stereo not drawn) [Compound 55]
> 100 µg/mL: [5] | [6]
12.5 µg/mL: all other assays above

C#CC[N+](C)(C)C1CC(C)OC(OC2C(C)C(OC3CC(C)(OC)C(O)C(C)O3)C(C)C(=O)OC(CC)C3(C)OB(c4ccccc4)OC3C(C)C3=C(C)CC2(C)O3)C1O (stereo not drawn) [Compound 56]
50 µg/mL: [1] | [3]
> 100 µg/mL: [5] | [6]
100 µg/mL: [2] | [4]

C#CC[N+](C)(C)C1CC(C)OC(OC2C(C)C(OC3CC(C)(OC)C(O)C(C)O3)C(C)C(=O)OC(CC)C3(C)OC(=O)OC3C(C)C3=C(C)CC2(C)O3)C1O (stereo not drawn) [Compound 57]
50 µg/mL: [2] | [3]
> 100 µg/mL: [5] | [6]
25 µg/mL: [1] | [4]

CC[C@H]1OC(=O)[C@H](C)[C@@H](O[C@H]2C[C@@](C)(OC)[C@@H](OC=O)[C@H](C)O2)[C@H](C)[C@@H](O[C@@H]2O[C@H](C)C[C@H]([N+](C)(C)C)[C@H]2O)[C@@]2(C)CC(C)=C(O2)[C@H](C)[C@@H](O)[C@]1(C)O [Compound 58]
> 100 µg/mL: all assays above

CC[C@H]1OC(=O)[C@H](C)[C@@H](O[C@H]2C[C@@](C)(OC)[C@@H](OC=O)[C@H](C)O2)[C@H](C)[C@@H](O[C@@H]2O[C@H](C)C[C@H]([N+](C)(C)CC)[C@H]2O)[C@@]2(C)CC(C)=C(O2)[C@H](C)[C@@H](O)[C@]1(C)O [Compound 59]
> 100 µg/mL: all assays above

C#CC[N+](C)(C)[C@H]1C[C@@H](C)O[C@@H](O[C@@H]2[C@@H](C)[C@H](O[C@H]3C[C@@](C)(OC)[C@@H](OC=O)[C@H](C)O3)[C@@H](C)C(=O)O[C@H](CC)[C@@](C)(O)[C@H](O)[C@@H](C)C3=C(C)C[C@@]2(C)O3)[C@@H]1O [Compound 60]
> 100 µg/mL: all assays above

CC[C@H]1OC(=O)[C@H](C)[C@@H](O[C@H]2C[C@@](C)(OC)[C@@H](O)[C@H](C)O2)[C@H](C)[C@@H](O[C@@H]2O[C@H](C)C[C@H]([N+](C)(C)CC)[C@H]2O)[C@@]2(C)CC(C)=C(O2)[C@H](C)[C@@H](O)[C@]1(C)O [Compound 61]
> 100 µg/mL: all assays above

CC[C@H]1OC(=O)[C@H](C)[C@@H](O[C@H]2C[C@@](C)(OC)[C@@H](O)[C@H](C)O2)[C@H](C)[C@@H](O[C@@H]2O[C@H](C)C[C@H]([N+](C)(C)C)[C@H]2O)[C@@]2(C)CC(C)C(O2)[C@H](C)[C@@H](O)[C@]1(C)O (stereo partly drawn) [Compound 62]
> 100 µg/mL: all assays above

CC[C@H]1OC(=O)[C@H](C)[C@@H](O[C@H]2C[C@@](C)(OC)[C@@H](O)[C@H](C)O2)[C@H](C)[C@@H](O[C@@H]2O[C@H](C)C[C@H]([N+](C)(C)CC)[C@H]2O)[C@@]2(C)CC(C)C(O2)[C@H](C)[C@@H](O)[C@]1(C)O (stereo partly drawn) [Compound 63]
> 100 µg/mL: all assays above

CCC[N+](C)(C)[C@H]1C[C@@H](C)O[C@@H](O[C@@H]2[C@@H](C)[C@H](O[C@H]3C[C@@](C)(OC)[C@@H](O)[C@H](C)O3)[C@@H](C)C(=O)O[C@H](CC)[C@@](C)(O)[C@H](O)[C@@H](C)C3O[C@]2(C)CC3C)[C@@H]1O (stereo partly drawn) [Compound 64]
> 100 µg/mL: all assays above

CCCC[N+](C)(C)[C@H]1C[C@@H](C)O[C@@H](O[C@@H]2[C@@H](C)[C@H](O[C@H]3C[C@@](C)(OC)[C@@H](O)[C@H](C)O3)[C@@H](C)C(=O)O[C@H](CC)[C@@](C)(O)[C@H](O)[C@@H](C)C3O[C@]2(C)CC3C)[C@@H]1O (stereo partly drawn) [Compound 65]
50 µg/mL: [3]
> 100 µg/mL: [5] | [6]
100 µg/mL: all other assays above

C=CC[N+](C)(C)[C@H]1C[C@@H](C)O[C@@H](O[C@@H]2[C@@H](C)[C@H](O[C@H]3C[C@@](C)(OC)[C@@H](O)[C@H](C)O3)[C@@H](C)C(=O)O[C@H](CC)[C@@](C)(O)[C@H](O)[C@@H](C)C3O[C@]2(C)CC3C)[C@@H]1O (stereo partly drawn) [Compound 66]
> 100 µg/mL: [5] | [6]
100 µg/mL: all other assays above

C#CC[N+](C)(C)[C@H]1C[C@@H](C)O[C@@H](O[C@@H]2[C@@H](C)[C@H](O[C@H]3C[C@@](C)(OC)[C@@H](O)[C@H](C)O3)[C@@H](C)C(=O)O[C@H](CC)[C@@](C)(O)[C@H](O)[C@@H](C)C3O[C@]2(C)CC3C)[C@@H]1O (stereo partly drawn) [Compound 67]
> 100 µg/mL: all assays above

C#CC[N+](C)(C)[C@H]1C[C@@H](C)O[C@@H](O[C@@H]2[C@@H](C)[C@H](O[C@H]3C[C@@](C)(OC)[C@@H](O)[C@H](C)O3)[C@@H](C)C(=O)O[C@H](CC)[C@@](C)(O)[C@H](O)[C@@H](C)C3O[C@]2(C)CC3C)[C@@H]1OC(C)=O (stereo partly drawn) [Compound 68]
> 100 µg/mL: all assays above

CC[C@H]1OC(=O)[C@H](C)[C@@H](O[C@H]2C[C@@](C)(OC)[C@@H](O)[C@H](C)O2)[C@H](C)[C@@H](O[C@@H]2O[C@H](C)C[C@H](N(C)CC)[C@H]2O)[C@@]2(C)CC(C)C(O2)[C@H](C)[C@@H](O)[C@]1(C)O (stereo partly drawn) [Compound 69]
> 100 µg/mL: all assays above

CC[C@H]1OC(=O)[C@H](C)[C@@H](O[C@H]2C[C@@](C)(OC)[C@@H](O)[C@H](C)O2)[C@H](C)[C@@H](O[C@@H]2O[C@H](C)C[C@H]([N+](C)(C)C)[C@H]2O)[C@@]2(C)CC(C)C3(O[C@@]1(C)[C@H](O)[C@H]3C)O2 (stereo partly drawn) [Compound 70]
> 100 µg/mL: all assays above

CC[C@H]1OC(=O)[C@H](C)[C@@H](O[C@H]2C[C@@](C)(OC)[C@@H](O)[C@H](C)O2)[C@H](C)[C@@H](O[C@@H]2O[C@H](C)C[C@H]([N+](C)(C)CC)[C@H]2O)[C@@]2(C)CC(C)C3(O[C@@]1(C)[C@H](O)[C@H]3C)O2 (stereo partly drawn) [Compound 71]
100 µg/mL: [3] | [4]
> 100 µg/mL: all other assays above

CCC[N+](C)(C)[C@H]1C[C@@H](C)O[C@@H](O[C@@H]2[C@@H](C)[C@H](O[C@H]3C[C@@](C)(OC)[C@@H](O)[C@H](C)O3)[C@@H](C)C(=O)O[C@H](CC)[C@@]3(C)OC4(O[C@]2(C)CC4C)[C@H](C)[C@H]3O)[C@@H]1O (stereo partly drawn) [Compound 72]
> 100 µg/mL: all assays above

CC[C@H]1OC(=O)[C@H](C)[C@@H](O[C@H]2C[C@@](C)(OC)[C@@H](O)[C@H](C)O2)[C@H](C)[C@@H](O[C@@H]2O[C@H](C)C[C@H]([N+](C)(C)Cc3ccccc3)[C@H]2O)[C@@]2(C)CC(C)C3(O[C@@]1(C)[C@H](O)[C@H]3C)O2 (stereo partly drawn) [Compound 73]
> 100 µg/mL: all assays above

CC[C@H]1OC(=O)[C@H](C)[C@@H](O[C@H]2C[C@@](C)(OC)[C@@H](O)[C@H](C)O2)[C@H](C)[C@@H](O[C@@H]2O[C@H](C)C[C@H]([N+](C)(C)CC)[C@H]2O)[C@@]2(C)CC(C)=C(O2)[C@H](C)[C@@H](O)C1C (stereo partly drawn) [Compound 74]
> 100 µg/mL: [3] | [5] | [6]
100 µg/mL: all other assays above

C#CC[N+](C)(C)[C@H]1C[C@@H](C)O[C@@H](O[C@@H]2[C@@H](C)[C@H](O[C@H]3C[C@@](C)(OC)[C@@H](O)[C@H](C)O3)[C@@H](C)C(=O)O[C@H](CC)C(C)[C@H](O)[C@@H](C)C3=C(C)C[C@@]2(C)O3)[C@@H]1O (stereo partly drawn) [Compound 75]
> 100 µg/mL: [5] | [6]
100 µg/mL: all other assays above
